We go through 16 compounds from US20240209019A1, “COMPOUNDS AND METHODS FOR TREATING HYPERKALEMIA” (ARDELYX, INC., priority 2019, published 2024).

The assay has as its target HSD2 (Homo sapiens (Human), UniProt P80365). The assay can be described thus: HSD2 activity: cortisol conversion in human descending colon organoid monolayer cultures (Example 112). The settings on record: for pIC50: human descending colon epithelial cultures on transwells, 30 minute pre-incubation, then 40 nM cortisol for four hours, cortisol HTRF assay.

HSD2, sequence (P80365 whole entry): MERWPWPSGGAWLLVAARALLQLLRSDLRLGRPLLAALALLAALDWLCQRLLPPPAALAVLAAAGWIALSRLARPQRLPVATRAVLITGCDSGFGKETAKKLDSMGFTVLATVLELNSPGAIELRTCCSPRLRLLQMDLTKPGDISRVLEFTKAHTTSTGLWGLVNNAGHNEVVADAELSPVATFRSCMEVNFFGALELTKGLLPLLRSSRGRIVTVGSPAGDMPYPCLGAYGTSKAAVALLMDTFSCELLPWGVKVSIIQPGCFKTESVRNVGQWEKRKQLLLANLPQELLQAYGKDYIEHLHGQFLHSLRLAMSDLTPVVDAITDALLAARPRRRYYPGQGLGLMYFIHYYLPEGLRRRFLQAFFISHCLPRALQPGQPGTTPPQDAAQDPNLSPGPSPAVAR
Procedure: Human descending colon epithelial stem cells were cultured as 3D organoids in accordance with Sato et al. Gastroenterology. […] Cultures were differentiated using SBM containing ENRA and 30 nM aldosterone on day 3, and cultures were used for assay on day 6 or 7. Compounds were diluted in DMSO and serial dilutions prepared by titrating in DMSO. Compounds were then diluted into DMEM/F12. Transwell plates containing descending colon cultures were washed twice with DMEM/F12 and compound was added to the apical compartment. Cells were incubated with test compound for 30 minutes at 37° C., 5% CO2 to equilibrate across the cell membrane. A second compound plate was prepared in which the serially diluted compounds in DMSO were diluted into DMEM/F12 containing 40 nM cortisol. Following the 30 minute pre-incubation step, the apical media was aspirated and compounds diluted in DMEM/F12 with 40 nM cortisol were added to the apical side of the transwell. The plate was then incubated for four hours at 37° C., 5% CO2. Cortisol levels were measured using a cortisol HTRF assay kit as described by the manufacturer (Cisbio). Concentration-response curves were then plotted and IC50 (and pIC50) values were determined using least squares non-linear regression.
Inhibition of HSD2 activity as measured by the inhibition of the conversion of cortisone to cortisol.

On to `C[C@]1(C(=O)O)CC[C@]2(C)CC[C@]3(C)C(=CC(=O)[C@@H]4[C@@]5(C)CC[C@H](OC(=O)CO)[C@@](C)(C(=O)O)[C@@H]5CC[C@]43C)[C@@H]2C1` [(2S,4aS,6aS,6bR,8aR,9S,10S,12aS,12bR,14bR)-10-[(2-hydroxyacetyl)oxy]-2,4a,6a,6b,9,12a-hexamethyl-13-oxo-1,2,3,4,4a,5,6,6a,6b,7,8,8a,9,10,11,12,12a,12b,13,14b-icosahydropicene-2,9-dicarboxylic acid], for which the pIC50 is listed as 5.9.

The compound `COCC(=O)O[C@H]1CC[C@@]2(C)[C@@H](CC[C@]3(C)[C@@H]2C(=O)C=C2[C@@H]4C[C@@](C)(C(=O)O)CC[C@]4(C)CC[C@]23C)[C@]1(C)C(=O)OCc1oc(=O)oc1C(C)C` [Compound 708-1, (2S,4aS,6aS,6bR,8aR,9S,10S,12aS,12bR,14bR)-10-[(2-methoxyacetyl)oxy]-2,4a,6a,6b,9,12a-hexamethyl-13-oxo-9-({[2-oxo-5-(propan-2-yl)-2H-1,3-dioxol-4-yl]methoxy}carbonyl)-1,2,3,4,4a,5,6,6a,6b,7,8,8a,9,10,11,12,12a,12b,13,14b-icosahydropicene-2-carboxylic acid] came in with a pIC50 of 6.3.

Take `Cc1oc(=O)oc1COC(=O)COC[C@@]1(C)[C@@H]2CC[C@]3(C)[C@H](C(=O)C=C4[C@@H]5C[C@@](C)(C(=O)O)CC[C@]5(C)CC[C@]43C)[C@@]2(C)CC[C@@H]1O` [Compound 240-8, (2S,4aS,6aS,6bR,8aR,9R,10S,12aS,12bR,14bR)-10-Hydroxy-2,4a,6a,6b,9,12a-hexamethyl-9-((2-((5-methyl-2-oxo-1,3-dioxol-4-yl)methoxy)-2-oxoethoxy)methyl)-13-oxo-1,2,3,4,4a,5,6,6a,6b,7,8,8a,9,10,11,12,12a,12b,13,14b-icosahydropicene-2-carboxylic acid]: the pIC50 was 5.

Compound `CSCC(=O)O[C@H]1CC[C@@]2(C)[C@@H](CC[C@]3(C)[C@@H]2C(=O)C=C2[C@@H]4C[C@@](C)(C(=O)O)CC[C@]4(C)CC[C@]23C)[C@]1(C)C(=O)O` [(2S,4aS,6aS,6bR,8aR,9S,10S,12aS,12bR,14bR)-2,4a,6a,6b,9,12a-hexamethyl-10-{[2-(methylsulfanyl)acetyl]oxy}-13-oxo-1,2,3,4,4a,5,6,6a,6b,7,8,8a,9,10,11,12,12a,12b,13,14b-icosahydropicene-2,9-dicarboxylic acid] had a pIC50 of 5.4.

On to `CC1(C)[C@@H](OCC(=O)O)CC[C@]2(C)[C@H]3C(=O)C=C4[C@@H]5C[C@@](C)(C(=O)O)CC[C@]5(C)CC[C@@]4(C)[C@]3(C)CC[C@@H]12` [Compound 78-2, (2S,4aS,6aS,6bR,8aR,10S,12aS,12bR,14bR)-10-(Carboxymethoxy)-2,4a,6a,6b,9,9,12a-heptamethyl-13-oxo-1,2,3,4,4a,5,6,6a,6b,7,8,8a,9,10,11,12,12a,12b,13,14b-icosahydropicene-2-carboxylic acid], for which the pIC50 is 5.4.

Take `Cc1oc(=O)oc1COC(=O)[C@]1(C)[C@@H](OC(=O)CO)CC[C@@]2(C)[C@H]1CC[C@]1(C)[C@@H]2C(=O)C=C2[C@@H]3C[C@@](C)(C(=O)O)CC[C@]3(C)CC[C@]21C` [Compound 244-1, (2S,4aS,6aS,6bR,8aR,9S,10S,12aS,12bR,14bR)-10-(2-Hydroxyacetoxy)-2,4a,6a,6b,9,12a-hexamethyl-9-(((5-methyl-2-oxo-1,3-dioxol-4-yl)methoxy)carbonyl)-13-oxo-1,2,3,4,4a,5,6,6a,6b,7,8,8a,9,10,11,12,12a,12b,13,14b-icosahydropicene-2-carboxylic acid]: the pIC50 was 6.8.

Compound `CCOC(=O)c1cnn([C@H]2CC[C@@]3(C)[C@@H](CC[C@]4(C)[C@@H]3C(=O)C=C3[C@@H]5C[C@@](C)(C(=O)O)CC[C@]5(C)CC[C@]34C)[C@]2(C)C(=O)OCc2oc(=O)oc2C)c1OC` [Compound 713-1, (2S,4aS,6aS,6bR,8aR,9S,10S,12aS,12bR,14bR)-10-[4-(ethoxycarbonyl)-5-methoxy-1H-pyrazol-1-yl]-2,4a,6a,6b,9,12a-hexamethyl-9-{[(5-methyl-2-oxo-2H-1,3-dioxol-4-yl)methoxy]carbonyl}-13-oxo-1,2,3,4,4a,5,6,6a,6b,7,8,8a,9,10,11,12,12a,12b,13,14b-icosahydropicene-2-carboxylic acid] came in with a pIC50 of 6.9.

The compound `CC(=O)O[C@H]1CC[C@@]2(C)[C@@H](CC[C@]3(C)[C@@H]2C(=O)C=C2[C@@H]4C[C@@](C)(C(=O)O)CC[C@]4(C)CC[C@]23C)[C@]1(C)C(=O)OCc1oc(=O)oc1C(C)C` [Compound 209-3, (2S,4aS,6aS,6bR,8aR,9S,10S,12aS,12bR,14bR)-10-acetoxy-9-(((5-isopropyl-2-oxo-1,3-dioxol-4-yl)methoxy)carbonyl)-2,4a,6a,6b,9,12a-hexamethyl-13-oxo-1,2,3,4,4a,5,6,6a,6b,7,8,8a,9,10,11,12,12a,12b,13,14b-icosahydropicene-2-carboxylic acid] came in with a pIC50 of 7.2.

Turning to `CC1(C)[C@@H](C(=O)OCC2COC(=O)O2)CC[C@]2(C)[C@H]3C(=O)C=C4[C@@H]5C[C@@](C)(C(=O)O)CC[C@]5(C)CC[C@@]4(C)[C@]3(C)CC[C@@H]12` (stereo partly drawn) [Compound 700-1, (2S,4aS,6aS,6bR,8aS,10S,12aS,12bR,14bR)-2,4a,6a,6b,9,9,12a-heptamethyl-13-oxo-10-{[(2-oxo-1,3-dioxolan-4-yl)methoxy]carbonyl}-1,2,3,4,4a,5,6,6a,6b,7,8,8a,9,10,11,12,12a,12b,13,14b-icosahydropicene-2-carboxylic acid], the pIC50 is recorded as 6.1.

In the case of `COCCOCCOCCOCCC(=O)O[C@H]1CC[C@@]2(C)[C@@H](CC[C@]3(C)[C@@H]2C(=O)C=C2[C@@H]4C[C@@](C)(C(=O)O)CC[C@]4(C)CC[C@]23C)[C@]1(C)C(=O)O` [Compound 190-3, (2S,4aS,6aS,6bR,8aR,9S,10S,12aS,12bR,14bR)-10-((2,5,8,11-tetraoxatetradecan-14-oyl)oxy)-2,4a,6a,6b,9,12a-hexamethyl-13-oxo-1,2,3,4,4a,5,6,6a,6b,7,8,8a,9,10,11,12,12a,12b,13,14b-icosahydropicene-2,9-dicarboxylic acid], the concentration for half-maximal inhibition (IC50) was > 10 µM.

In turn, `CCOC(=O)c1cnn([C@H]2CC[C@@]3(C)[C@@H](CC[C@]4(C)[C@@H]3C(=O)C=C3[C@@H]5C[C@@](C)(C(=O)O)CC[C@]5(C)CC[C@]34C)[C@]2(C)C(=O)O)c1OC` [(2S,4aS,6aS,6bR,8aR,9S,10S,12aS,12bR,14bR)-10-[4-(ethoxycarbonyl)-5-methoxy-1H-pyrazol-1-yl]-2,4a,6a,6b,9,12a-hexamethyl-13-oxo-1,2,3,4,4a,5,6,6a,6b,7,8,8a,9,10,11,12,12a,12b,13,14b-icosahydropicene-2,9-dicarboxylic acid] registered a pIC50 of 5.6.

As to `Cc1oc(=O)oc1COC(=O)[C@]1(C)[C@@H](OC(=O)C2CC2)CC[C@@]2(C)[C@H]1CC[C@]1(C)[C@@H]2C(=O)C=C2[C@@H]3C[C@@](C)(C(=O)O)CC[C@]3(C)CC[C@]21C` [Compound 198-2, (2S,4aS,6aS,6bR,8aR,9S,10S,12aS,12bR,14bR)-10-((Cyclopropanecarbonyl)oxy)-2,4a,6a,6b,9,12a-hexamethyl-9-(((5-methyl-2-oxo-1,3-dioxol-4-yl)methoxy)carbonyl)-13-oxo-1,2,3,4,4a,5,6,6a,6b,7,8,8a,9,10,11,12,12a,12b,13,14b-icosahydropicene-2-carboxylic acid], the pIC50 was found to be 7.7.

`Cc1oc(=O)oc1COC(=O)[C@]1(C)[C@@H](OC(=O)NCCN2CCOCC2)CC[C@@]2(C)[C@H]1CC[C@]1(C)[C@@H]2C(=O)C=C2[C@@H]3C[C@@](C)(C(=O)O)CC[C@]3(C)CC[C@]21C` [Compound 286-4, (2S,4aS,6aS,6bR,8aR,9S,10S,12aS,12bR,14bR)-2,4a,6a,6b,9,12a-hexamethyl-9-(((5-methyl-2-oxo-1,3-dioxol-4-yl)methoxy)carbonyl)-10-(((2-morpholinoethyl)carbamoyl)oxy)-13-oxo-1,2,3,4,4a,5,6,6a,6b,7,8,8a,9,10,11,12,12a,12b,13,14b-icosahydropicene-2-carboxylic acid] gave a pIC50 of 6.9.

In turn, `Cc1oc(=O)oc1COC(=O)[C@]1(C)[C@@H](OC(=O)CS(C)(=O)=O)CC[C@@]2(C)[C@H]1CC[C@]1(C)[C@@H]2C(=O)C=C2[C@@H]3C[C@@](C)(C(=O)O)CC[C@]3(C)CC[C@]21C` [Compound 195-2, (2S,4aS,6aS,6bR,8aR,9S,10S,12aS,12bR,14bR)-2,4a,6a,6b,9,12a-Hexamethyl-9-(((5-methyl-2-oxo-1,3-dioxol-4-yl)methoxy)carbonyl)-10-(2-(methylsulfonyl)acetoxy)-13-oxo-1,2,3,4,4a,5,6,6a,6b,7,8,8a,9,10,11,12,12a,12b,13,14b-icosahydropicene-2-carboxylic acid] showed a pIC50 of 6.3.

The compound `CC(=O)O[C@H]1CC[C@@]2(C)[C@@H](CC[C@]3(C)[C@@H]2C(=O)C=C2[C@@H]4C[C@@](C)(C(=O)O)CC[C@]4(C)CC[C@]23C)[C@]1(C)C(=O)OCc1oc(=O)oc1C(C)(C)C` [Compound 705-1, (2S,4aS,6aS,6bR,8aR,9S,10S,12aS,12bR,14bR)-10-(acetyloxy)-9-{[(5-tert-butyl-2-oxo-2H-1,3-dioxol-4-yl)methoxy]carbonyl}-2,4a,6a,6b,9,12a-hexamethyl-13-oxo-1,2,3,4,4a,5,6,6a,6b,7,8,8a,9,10,11,12,12a,12b,13,14b-icosahydropicene-2-carboxylic acid] showed a pIC50 of 6.6.

`C[C@]1(C(=O)O)CC[C@]2(C)CC[C@]3(C)C(=CC(=O)[C@@H]4[C@@]5(C)CC[C@H](OC(=O)C6CC6)[C@@](C)(C(=O)O)[C@@H]5CC[C@]43C)[C@@H]2C1` [(2S,4aS,6aS,6bR,8aR,9S,10S,12aS,12bR,14bR)-10-(cyclopropanecarbonyloxy)-2,4a,6a,6b,9,12a-hexamethyl-13-oxo-1,2,3,4,4a,5,6,6a,6b,7,8,8a,9,10,11,12,12a,12b,13,14b-icosahydropicene-2,9-dicarboxylic acid]: the pIC50 is recorded as 5.8.

By pIC50 is commonly meant −log10 of the IC50, conventionally taken in molar units. Lower therefore signals a large IC50. One may read the IC50 as the concentration that gives 50% inhibition. A low value points to inhibition by little substance.
